The values that follow are results of earlier work, collected in patent publication US20240415846A1, “METHOD OF TREATING AMYOTROPHIC LATERAL SCLEROSIS AND DOSING REGIMEN FOR SAME” (Woolsey Pharmaceuticals, Inc., priority 2021, published 2024).

The conditions of this series: 1-hydroxy (M3) metabolite formed in vivo; Shibuya 2001; cited from earlier work.

As for `O=S(=O)(c1cccc2c(O)nccc12)N1CCCNCC1` [M3], the half-life result is on record as “about 8 hours”.
